According to paper PMC4599284, “Redox effects and cytotoxic profiles of MJ25 and auranofin towards malignant melanoma cells” (Oncotarget, 2015):

Key:
[1] = molecular target: T1, thioredoxin reductase 1 (TrxR1) (Rattus norvegicus, UniProt O89049); test: NADPH-dependent DTNB reduction assay with purified enzyme; irreversibility tested by desalting; type: biochemical
T1 construct: gene Txnrd1; recombinant selenocysteine-containing rat TrxR1
T1 sequence (O89049 1-499): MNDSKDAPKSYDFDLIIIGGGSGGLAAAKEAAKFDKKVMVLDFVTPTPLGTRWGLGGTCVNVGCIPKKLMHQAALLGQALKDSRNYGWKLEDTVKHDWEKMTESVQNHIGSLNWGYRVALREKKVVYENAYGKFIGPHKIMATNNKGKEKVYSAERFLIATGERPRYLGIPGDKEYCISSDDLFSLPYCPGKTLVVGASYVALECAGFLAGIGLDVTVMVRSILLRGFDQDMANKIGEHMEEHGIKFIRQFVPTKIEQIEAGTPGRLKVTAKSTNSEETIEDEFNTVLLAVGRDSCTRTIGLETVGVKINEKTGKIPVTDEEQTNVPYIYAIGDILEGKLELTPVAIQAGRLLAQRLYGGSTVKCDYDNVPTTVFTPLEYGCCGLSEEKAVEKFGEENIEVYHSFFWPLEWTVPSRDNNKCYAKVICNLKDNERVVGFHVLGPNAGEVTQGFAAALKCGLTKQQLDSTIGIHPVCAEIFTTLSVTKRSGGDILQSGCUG

[2] = molecular target: T1, thioredoxin reductase 1 (TrxR1); test: NADPH-dependent juglone reduction by purified enzyme, NADPH consumption at […] nm; type: biochemical

SMILES	NADPH-dependent DTNB reduction assay with purified enzyme; irreversibility teste [1]	NADPH-dependent juglone reduction by purified enzyme, NADPH consumption at 340 n [2]
CC[P](CC)(CC)=[Au][S][C@@H]1O[C@H](COC(C)=O)[C@@H](OC(C)=O)[C@H](OC(C)=O)[C@H]1OC(C)=O [auranofin]	Both MJ25 and auranofin were found to inhibit TrxR1 irreversibly.	
O=C1C=CC(=O)c2c(O)cccc21 [juglone, 5-hydroxy-1,4-naphthoquinone]		using juglone as a Sec-independent substrate and the DTNB assay as a Sec-dependent activity control
O=S(=O)(CCSc1nc2ccccc2o1)c1nc2ccccc2s1 [MJ25, 2-{[2-(1,3-benzothiazol-2-ylsulfonyl)ethyl]thio}-1,3-benzoxazole]	we also confirmed that repurchased MJ25 inhibited recombinant TrxR1 (Figure 4a)	
